Measured values from US9861678B2, “Casein peptide for use in the treatment of uterine infections” (Mileutis Ltd., priority 2010, dated 2018).

Columns and labels:
[1] = system: dairy cows with clinical postpartum metritis; test: Clinical study 1, low dose: casein hydrolysate vs antibiotics in post-partum bovine clinical metritis (safety and efficacy); type: in vivo; conditions: for genital secretions (ranking): score 0-4 per Table 2
Description: The effects of bovine casein hydrolysate in comparison with antibiotic drugs, was studied in dairy cows suffering from acute puerperal metritis (Sheldon et al., ibid 2006).
The cows recruited for this study were lactating Holstein Friesian located in large dairy herd in Israel (longitude 34°40′E-35°30′E; latitude 30°30′N-33°01′N). The cows were milked 3 times a day. The herd used was free-stall barn with a size ranged from 300 to 350 milking cows.
Cows are enrolled to the study provided that their physical condition is complied with the inclusion criteria as follows: • Cows with clinical postpartum metritis, • Cows with non-twins delivery, • Cows were not administered with intrauterine or systemic reproductive hormone therapy during the last 4 weeks, • Cows with no diagnosed morbidities, which may be potentially influence the outcome of treatment in the judgment of the investigator, • The herd managers agreed not to administer any intrauterine or reproductive hormonal therapy before examination of cows for this trial.
In addition, cows were enrolled to the clinical study provided that they have none of the following characteristics (herein “exclusion criteria”): • Cows had abnormal internal genitalia (including adhesions) • Cows with diagnosis and or treatment of severe vaginitis, lameness, mastitis-ketosis and digestive disorders during the current post calving period or any other clinical disease requiring systemic treatment at enrollment, • Cows identified to be culled (not to be inseminated) after calving • Cows administrated with immunotherapy within 3 weeks prior to study entry, • Cows administrated with anti-inflammatory and/or anabolic therapies, either systemic or by feeding 2 weeks prior to study entry. • Cows which are suspected or with a diagnosis of retained fetal membranes at the time of the current calving. • Cows which are suspected or with a clinical evidence of acute puerperal metritis with a systemic effect • Cows which are indented to be removed for any reason from the farm in the current location.
Cows in a proper physical condition (as defined above in the inclusion criteria and the exclusion criteria), that were diagnosed with confirmed clinical metritis, as determined by any one of the following clinical criteria, were enrolled to this clinical study:
1) cows must be febrile (i.e., morning rectal temperature more than 39.4° C.) and/or
2) cows must have a flaccid, non-retractable uterus that is located in the abdomen, a cervical diameter >7.5 cm, and a watery, mucopurulent, or fetid vulvar discharge.
On day “0” (first day of the study), dairy heifers or primiparous or multiparous dairy cows from the same herd and within the same lactation and ages were randomly divided, using tables prepared in advance by the investigator, to receive one or other of the treatments. Within each table, cows were assigned to treatment in pairs, a cow for each group.
Case study Arm (“arm 1”)—450 mg of bovine casine hydrolysate (Batch Number B100) administered in a 150 ml solution until completion of the arm's sample size.
(§1) Control Arm (“arm 2”)—25 ml of Oxytetracycline dehydrate (200 mg/ml total of 5,000 mg) (Norbrook Laboratory, UK).
(§2) Treatment was initiated at day “0” and was administered to the cows through transcervical intrauterine infusion using a sterile uterine catheter.
Safety was determined by monitoring on days 0.3, 1, 2, 3, 7 and 14 post-treatment, the appearance of adverse events (as detailed below) or any sign of toxicity.
In addition, the overall general impression from each cow was assessed and ranked according to the description on Table 1.
Efficacy was assessed by measuring the rectal temperature; genital system morphology and the genital secretions at a first visit after the morning observation and milking, before the treatment, 6-8 hours after the treatment and then on days 1, 2, 3, 7 and 14 post treatment. In general, treatment success was assessed after a total of 14 days after treatment. […]

[2] = system: dairy cows with clinical postpartum metritis; test: Clinical study 2, high dose: casein hydrolysate vs antibiotics in post-partum bovine clinical metritis (safety and efficacy); type: in vivo, lactating Israel Holstein Friesian cows
Description: The cows recruited for this study were lactating Israel Holstein Friesian located in a large dairy herd in Israel (longitude 34°40′E-35°30′E; latitude 30°30′N-33°01′N).
Cows enrollment to the study with respect to the physical conditions, inclusion criteria and exclusion criteria were as detailed above for clinical study-1 with respect to the overall physical condition and with respect to the diagnosis with clinical post partum metritis. In addition, cows randomization was as detailed above.
On day “0” (first day of the study) dairy heifers or primiparous or multiparous dairy cows from the same herd and with the same lactation and ages were randomly divided, using tables prepared in advance by the investigator, to receive one or other of the treatments. Within each table, cows were assigned to treatment in pairs, a cow for each group.
Case study Arm (“arm 1”)—1350 mg of bovine casein hydrolysate (Batch Number B100) administered in a 150 ml solution 3 times.
as §1, §2
Safety and efficacy criteria are as detailed above for clinical study 1 (Example 2)
The administrated veterinarian examined all cows and was in charge on the ranking of the genital secretions, from 1 to 4, based on the descriptions provided in Table 2 of clinical study 1 as well as the genital system morphology according to the description in Table 3 of clinical study 1 and the overall general impression from each cow according to the description on […].

With `CN(C)[C@@H]1C(O)=C(C(N)=O)C(=O)[C@@]2(O)C(O)=C3C(=O)c4c(O)cccc4[C@@](C)(O)[C@H]3[C@H](O)[C@@H]12` [Antibiotics, Oxytetracycline dehydrate] the “cow's fever (rectal temperature)” value ([1]; 6-8 h after treatment, casein hydrolysate 450 mg or oxytetracycline 5,000 mg intrauterine) was 39.4 ± 0.66 °C, the “genital secretions (ranking)” value ([1]; 6-8 h after treatment) was 3.0 ± 0.92 and the “cow's fever (rectal temperature)” value ([1]; Before treatment (day = 0), casein hydrolysate 450 mg in 150 ml or oxytetracycline 5,000 mg, intrauterine infusion, 8 cows per arm) was 38.8 ± 0.26 °C. For the same compound, the “genital secretions (ranking)” value ([1]; Before treatment (day = 0), casein hydrolysate 450 mg or oxytetracycline 5,000 mg intrauterine) was 3.625 ± 0.517, the “cow's fever (rectal temperature)” value ([1]; Day 1 (22-32 h after treatment), casein hydrolysate 450 mg or oxytetracycline 5,000 mg intrauterine) was 39.1 ± 0.27 °C and the “genital secretions (ranking)” value ([1]; Day 1 (22-32 h after treatment)) was 2.12 ± 0.84. The “cow's fever (rectal temperature)” value ([1]; Day 2, casein hydrolysate 450 mg or oxytetracycline 5,000 mg intrauterine) was 39.1 ± 0.47 °C, the “genital secretions (ranking)” value ([1]; Day 2) was 2.0 ± 0.92 and the “cow's fever (rectal temperature)” value ([1]; Day 3, casein hydrolysate 450 mg or oxytetracycline 5,000 mg intrauterine) was 38.9 ± 0.37 °C. The “genital secretions (ranking)” value ([1]; Day 3) was 2.0 ± 0.92, the “cow's fever (rectal temperature)” value ([1]; Day 7, casein hydrolysate 450 mg or oxytetracycline 5,000 mg intrauterine) was 38.9 ± 0.18 °C and the “genital secretions (ranking)” value ([1]; Day 7) was 1.5 ± 0.75. For the same compound, the “cow's fever (rectal temperature)” value ([1]; Day 14, casein hydrolysate 450 mg or oxytetracycline 5,000 mg intrauterine) was 38.8 ± 0.41 °C, the “genital secretions (ranking)” value ([1]; Day 14) was 1.5 ± 0.75 and the “cow's fever (rectal temperature)” value ([2]; 6-8 h after treatment, casein hydrolysate 1350 mg or oxytetracycline 5,000 mg intrauterine) was 39.1 °C. For the same compound, the “cow's fever (rectal temperature)” value ([2]; Before treatment (day = 0), casein hydrolysate 1350 mg (150 ml solution 3 times) or oxytetracycline 5,000 mg, intrauterine, 4 and 3 cows) was 38.4 °C, the “cow's fever (rectal temperature)” value ([2]; Day 1 (22-32 h after treatment), casein hydrolysate 1350 mg or oxytetracycline 5,000 mg intrauterine) was 38.6 °C and the “cow's fever (rectal temperature)” value ([2]; Day 2, casein hydrolysate 1350 mg or oxytetracycline 5,000 mg intrauterine) was 38.4 °C. The “cow's fever (rectal temperature)” value ([2]; Day 3, casein hydrolysate 1350 mg or oxytetracycline 5,000 mg intrauterine) was 38.9 °C, the “cow's fever (rectal temperature)” value ([2]; Day 7, casein hydrolysate 1350 mg or oxytetracycline 5,000 mg intrauterine) was 38.3 °C and the “cow's fever (rectal temperature)” value ([2]; Day 14, casein hydrolysate 1350 mg or oxytetracycline 5,000 mg intrauterine) was 38.7 °C.
